Reference: patent publication US20100305074A1, “NIACIN-BASED PHARMACEUTICAL COMPOSITIONS” (priority 2007, published 2010)

Key:
[1] = system: men with low HDL and coronary artery disease; conditions: in combination with other lipid medications; HATS trial, N Engl J Med 345:1583-1592; cited from earlier work
[2] = system: patients with niacin-induced pruritis; assay: Treatment of niacin-induced pruritis with an H-1 blocking agent (Example 6); assay type: in vivo, human; conditions: among the seven successful patients; morning dosing (cetrizine, fexofenadine) or evening dosing (diphenhydramine)
Experimental: Nine patients with niacin-induced pruritis were treated by recommending an H-1 blocking agent.

[3] = system: patients with debilitating flushing on sustained-release niacin therapy; assay: Prevention of flushing in patients on sustained-release niacin therapy (Examples 1 and 3); assay type: in vivo, human; conditions: thirteen patients initiating sustained-release niacin; Aspirin 81 mg for prevention of flushing
[4] = system: patients who developed hyperuricemia while on niacin therapy; assay: Hyperuricemia on niacin therapy controlled with allopurinol (Example 7); conditions: daily dosing 25 to 200 mg to control hyperuricemia
Experimental: Two females and 15 males were given allopurinol to control the hyperuricemia (daily dosing ranged from 25 to 200 mg).

| SMILES | effect on niacin-induced pruritis [2] | further results |
| --- | --- | --- |
| O=C(O)c1cccnc1 [niacin, 3-pyridinecarboxylic acid] |  | lowering of the incidence of cardiovascular events (heart attacks, strokes, and sudden death) [1]: 60-90% |
| CC(C)(C(=O)O)c1ccc(C(O)CCCN2CCC(C(O)(c3ccccc3)c3ccccc3)CC2)cc1 (stereo not drawn) [fexofenadine] | resolution of pruritis |  |
| CN(C)CCOC(c1ccccc1)c1ccccc1 [diphenhydramine] | resolution of pruritis |  |
| CC(=O)Oc1ccccc1C(=O)O [Aspirin] |  | flushing despite prevention [3]: continued to have debilitating flushing |
| Oc1ncnc2[nH]ncc12 [allopurinol] |  | continuation of niacin therapy [4]: All were able to continue niacin therapy |
| O=C(O)COCCN1CCN(C(c2ccccc2)c2ccc(Cl)cc2)CC1 (stereo not drawn) [cetrizine] | resolution of pruritis |  |
